pIC50: −log10 of the molar value.
Experiments:
Mouse Hepatocyte = assay: Metabolic stability in hepatocytes (mouse); format: in vitro ADME; settings: 1 μM test compound, cryopreserved mouse hepatocytes
Protocol: 4.6. Metabolic Stability in Hepatocytes
The aim of this assay is to determine the metabolic stability of the compound in hepatocytes (cryopreserved) of different species. Low hepatocyte stability may result in the formation of unwanted metabolites, high clearance, and therefore is not desirable.
The decrease in parent was assessed by measuring the percentage remaining by LC-MS/MS analysis.
A 10 mM stock solution of test compound in DMSO was first diluted in DMSO to 3 mM, and then in modified Krebs-Henseleit buffer (Sigma, K3753) to 5 μM. This compound dilution was added to a suspension of pooled cryopreserved hepatocytes (BioreclamationIVT) at 37° C. under gentle shaking.
Final reaction conditions were: 1 μM of test compound, 0.03% DMSO, 0.5 million viable hepatocytes/mL, and 75 μL incubation volume.
Testosterone (1 μM) and 7-hydroxycoumarin (1 μM) were used, respectively as phase I and phase II metabolic reaction controls.
After 0, 10, 20, 45, 90, 120 and 180 min of incubation, the reaction was terminated with 225 μL of MeCN:MeOH (2:1) containing 100 ng/mL of diclofenac as analytical internal standard. Samples were mixed, centrifuged and the supernatant analyzed by LC-MS/MS.
The instrument responses (ratios of test compound and internal standard peak areas) were referenced to the zero time point samples (considered as 100%) in order to determine the percentage of compound remaining.
Plots of percentage compound remaining were used to determine the intrinsic clearance in the hepatocyte incubations using the following equations:
Scaled Clint [L/h/kg]=Clint[μL/min/10^6 cells]*#(10^6) cells/g liver*60*( 1/10^6) Scaled Clint unbound [L/h/kg]=Clint [L/h/kg]/Fu,inc where: fu,inc equals hepatocyte binding, derived from microsomal binding (fu,mic) by following equation: […]

[1] = system: CL097 triggered IFNα release in human whole blood; assay: Ex vivo human IFNα release inhibition (human whole blood assay); format: cell-based; settings: Homo sapiens, CL097 2 μg/mL, 3 h 30 min at 37° C.
From the text: 4.10.1. Ex Vivo Human IFNα and TNFα Release Inhibition (Human Whole Blood Assay)
The aim of the assay is to evaluate the activity of compounds of the invention on the activated TLR/IRAK-4 pathway in an ex vivo human whole blood setting. Toll-like receptors (TLRs) are pattern recognition receptors that recognize a wide variety of microbial molecules, called pathogen-associated molecular patterns (PAMPs). Human TLR7 and TLR8 recognize imidazoquinoline compounds (e.g., CL097—CAS n #1026249-18-2) and single stranded RNAs as their natural ligands. Activation of TLRs leads to the production of several cytokines (e.g., IFNα, TNFα, IL-8, IL-6) by the TLR agonist-treated cells, whereas IRAK4 leads to the production of IFNα. Cytokine release is used as readout in this assay and represents a measure for the level of inhibition of the TLR/IRAK-4 pathway by the tested compound. It should be noted that in the context of the complete organism, other sources for these cytokines exist that are not dependent on the TLR/IRAK-4 pathway, such as e.g., macrophages (upon activation of the Fcγ receptor (Yan et al., 2012)) or T cells (upon activation of the T cell receptor (Brehm et al., 2005)).
4.10.1.1. Experimental Design
Blood was collected from healthy volunteers into lithium heparin tubes by venipuncture, then gently inverted several times to prevent clotting and incubated for at least 15 min at 37° C. on a rocking mixer shaker. Then, 100 μL of blood was dispensed into polypropylene 96-well microplate and pre-incubated in duplicate with 0.3% DMSO or test compound at different concentrations (from 30 to 0.01 μM, 3-fold dilutions to get 0.3% DMSO at the final) for 15 min at 37° C. After this pre-incubation, blood was triggered with CL097 (2 μg/mL from 1 mg/mL solution in water; InvivoGen, tlrl-c97) for 3 h 30 min at 37° C. Microtubes were centrifuged at 5000×g for 10 min at 4° C. and approximately 40 μL of plasma were collected into a polystyrene 96-well plate. Plasma could be analyzed freshly, within 30 min after triggering, or frozen at −80° C. Finally, the quantification of TNFα and IFNα were performed in the plasma using AlphaLISA Kit for TNFα and IFNα according to the manufacturer's instructions and read on the Ensight (PerkinElmer).
A standard curve was created by plotting on log-log the mean […] on the y-axis against the concentration on the x-axis and a 4-parameters logistic regression (4PL) was made through the points. For each blood sample, the IFNα concentrations of the samples were determined from the fit. Data were then expressed as a percentage of inhibition (PIN) for each replicate using the formula:
With mean IFNα with CL097=mean IFNα concentration of replicate samples triggered with CL097; IFNαsample1=IFNα concentration of sample 1; mean IFNα with vehicle=mean IFNα concentration of replicate samples treated with vehicle.
Curve fitting for pIC50 determination were generated using mean PIN±sem. Graphs and pIC50 calculations were derived using Prism 5.03 software (GraphPad).

Row | Mouse Hepatocyte stability (Perc. remaining at 90 min) (Mouse Hepatocyte) | pIC50 [1] | SMILES
1 | 80.9 Perc. | 5.30 to 6.00 | CC(C)(O)CCc1cc2cc(NC(=O)c3cccc(C(F)F)n3)c(C(N)=O)cn2n1 [Compound 20, 5-[[6-(difluoromethyl)pyridine-2-carbonyl]amino]-2-(3-hydroxy-3-methyl-butyl)pyrazolo[1,5-a]pyridine-6-carboxamide]
2 | 49.45 Perc. | 5.30 to 6.00 | COc1cn2nc(CCC(C)(C)O)cc2cc1NC(=O)c1cccn(C2CCC2)c1=O [Compound 21, 1-cyclobutyl-N-[2-(3-hydroxy-3-methyl-butyl)-6-methoxy-pyrazolo[1,5-a]pyridin-5-yl]-2-oxo-pyridine-3-carboxamide]
